Molecules are shown by their SMILES.

One data set deals with interferon (α) induction in human peripheral blood mononuclear cells (PBMC). The experiment in a line: Cytokine induction in human cells: interferon (α) secreted by PBMC, ELISA. The format is cell-based. To be noted: lowest concentration found to induce interferon, incubated 18 to 24 hours at 37° C. From the text:
(§1) An in vitro human blood cell system is used to assess cytokine induction. Activity is based on the measurement of interferon and tumor necrosis factor (α) (IFN and TNF, respectively) secreted into culture media as described by Testerman et. al. In “Cytokine Induction by the Immunomodulators Imiquimod and S-27609”, Journal of Leukocyte Biology, 58, 365–372 (September, 1995).
(§2) Whole blood from healthy human donors is collected by venipuncture into EDTA vacutainer tubes. Peripheral blood mononuclear cells (PBMC) are separated from whole blood by density gradient centrifugation using Histopaque®-1077. Blood is diluted 1:1 with Dulbecco's Phosphate Buffered Saline (DPBS) or Hank's Balanced Salts Solution (HBSS). The PBMC layer is collected and washed twice with DPBS or HBSS and resuspended at 4×10^6 cells/mL in RPMI complete. The PBMC suspension is added to 48 well flat bottom sterile tissue culture plates (Costar, Cambridge, Mass. or Becton Dickinson Labware, Lincoln Park, N.J.) containing an equal volume of RPMI complete media containing test compound.
(§3) The compounds are solubilized in dimethyl sulfoxide (DMSO). The DMSO concentration should not exceed a final concentration of 1% for addition to the culture wells. The compounds are generally tested at concentrations ranging from 30–0.014 μM.
(§4) The solution of test compound is added at 60 μM to the first well containing RPMI complete and serial 3 fold dilutions are made in the wells. The PBMC suspension is then added to the wells in an equal volume, bringing the test compound concentrations to the desired range (30–0.014 μM). The final concentration of PBMC suspension is 2×10^6 cells/mL. The plates are covered with sterile plastic lids, mixed gently and then incubated for 18 to 24 hours at 37° C. in a 5% carbon dioxide atmosphere.
(§5) Following incubation the plates are centrifuged for 10 minutes at 1000 rpm (˜200×g) at 4° C. The cell-free culture supernatant is removed with a sterile polypropylene pipet and transferred to sterile polypropylene tubes. Samples are maintained at −30 to −70° C. until analysis. The samples are analyzed for interferon (α) by ELISA and for tumor necrosis factor (α) by ELISA or IGEN Assay
Interferon (α) concentration is determined by ELISA using a Human Multi-Species kit from PBL Biomedical Laboratories, New Brunswick, N.J. Results are expressed in pg/mL.
(§6) The table below lists the lowest concentration found to induce interferon and the lowest concentration found to induce tumor necrosis factor for each compound.
As to `COCCc1nc2c(N)nc3ccccc3c2n1CCOCCN(C)C(=O)Nc1ccccc1` [Example 3, N-(2-{2-[4-amino-2-(2-methoxyethyl)-1H-imidazo[4,5-c]quinolin-1-yl]ethoxy}ethyl)-N-methyl-N′-phenylurea], the minimal effective concentration stood at 0.01 µM.

The next data set concerns tumor necrosis factor (α) induction in human peripheral blood mononuclear cells (PBMC). The experiment in a line: Cytokine induction in human cells: tumor necrosis factor (α) secreted by PBMC, ELISA or IGEN assay. The format is cell-based. To be noted: lowest concentration found to induce tumor necrosis factor, incubated 18 to 24 hours at 37° C.
From the text: as §1, §2, §3, §4, §5
Tumor necrosis factor (α) (TNF) concentration is determined using ELISA kits available from Biosource International, Camarillo, Calif. Alternately, the TNF concentration can be determined by Origen® M-Series Immunoassay and read on an IGEN M-8 analyzer from IGEN International, Gaithersburg, Md. The immunoassay uses a human TNF capture and detection antibody pair from Biosource International, Camarillo, Calif. Results are expressed in pg/mL.
as §6
In turn, `COCCc1nc2c(N)nc3ccccc3c2n1CCOCCN(C)C(=O)Nc1ccccc1` [Example 3, N-(2-{2-[4-amino-2-(2-methoxyethyl)-1H-imidazo[4,5-c]quinolin-1-yl]ethoxy}ethyl)-N-methyl-N′-phenylurea] came in with a minimal effective concentration of 0.37 µM.

Tested on in a further data set: not given
Assay: not given
Settings: not given
Take `CCOCc1nc2c(N)nc3ccccc3c2n1CCOCCNC(=O)NC1CCCCC1` [Example 54, N-(2-{2-[4-amino-2-(ethoxymethyl)-1H-imidazo[4,5-c]quinolin-1-yl]ethoxy}ethyl)-N′cyclohexylurea]: the melting point fell in the range of 161 to 164 °C. Still for that read-out and setting: the value for `Cc1nc2c(N)nc3ccccc3c2n1CCOCCNC(=O)NC1CCCCC1` [Example 49, N-{2-[2-(4-amino-2-methyl-1H-imidazo[4,5-c]quinolin-1-yl)ethoxy]ethyl}-N′-cyclohexylurea] was 207 to 209 °C; that for `CCc1nc2c(N)nc3ccccc3c2n1CCOCCNC(=O)NC1CCCCC1` [Example 51, N-{2-[2-(4-amino-2-ethyl-1H-imidazo[4,5-c]quinolin-1-yl)ethoxy]ethyl}-N′-cyclohexylurea] was 198 to 200 °C. With `Cc1nc2c(N)nc3ccccc3c2n1CCOCCNC(=O)Nc1ccccc1` [Example 48, N-{2-[2-(4-amino-2-methyl-1H-imidazo[4,5-c]quinolin-1-yl)ethoxy]ethyl}-N′-phenylurea], the melting point lay within 193 to 195 °C. Still for that read-out and setting: next, `COCCc1nc2c(N)nc3c(c2n1CCOCCNC(=O)Nc1ccccc1)CCCC3` [Example 2, N-(2-{2-[4-amino-2-(2-methoxyethyl)-6,7,8,9-tetrahydro-1H-imidazo[4,5-c]quinolin-1-yl]ethoxy}ethyl)-N′-phenylurea]: 180 to 182 °C; `CCOCc1nc2c(N)nc3ccccc3c2n1CCOCCNC(=O)N1CCOCC1` [Example 55, N-(2-{2-[4-amino-2-(ethoxymethyl)-1H-imidazo[4,5-c]quinolin-1-yl]ethoxy}ethyl)morpholine-4-carboxamide]: 178 to 181 °C. Still for that read-out and setting: next, `CCc1nc2c(N)nc3ccccc3c2n1CCOCCNC(=O)N1CCOCC1` [Example 52, N-{2-[2-(4-amino-2-ethyl-1H-imidazo[4,5-c]quinolin-1-yl)ethoxy]ethyl}morpholine-4-carboxamide]: 182 to 184 °C.

As for `COCCc1nc2c(N)nc3ccccc3c2n1CCOCCN(C)C(=O)N1CCOCC1` [Example 6, N-(2-{2-[4-amino-2-(2-methoxyethyl)-1H-imidazo[4,5-c]quinolin-1-yl]ethoxy}ethyl)-N-methylmorpholine-4-carboxamide], the melting point fell in the range of 121.8 to 122.3 °C.

On to `COCCc1nc2c(N)nc3ccccc3c2n1CCOCCN(C)C(=O)Nc1ccccc1` [Example 3, N-(2-{2-[4-amino-2-(2-methoxyethyl)-1H-imidazo[4,5-c]quinolin-1-yl]ethoxy}ethyl)-N-methyl-N′-phenylurea], for which the melting point lay within 184.8 to 185.8 °C. Same read-out and setting: the value for `COCCc1nc2c(N)nc3c(c2n1CCOCCN(C)C(=O)Nc1ccccc1)CCCC3` [Example 4, N-(2-{2-[4-amino-2-(2-methoxyethyl)-6,7,8,9-tetrahydro-1H-imidazo[4,5-c]quinolin-1-yl]ethoxy}ethyl)-N-methyl-N′-phenylurea] was 167.7 to 170 °C.
